Measurements from ChEMBL document CHEMBL3508140 (2016).
Values belong to the compound of their own block, whether it stands above or below them.

Assays:
[1] = AUC values (0-48 h) of 7-deoxy epirubicinol aglycone in tumor following single intravenous epirubicin at 10 mg.Kg-1 dose in female mouse bearing colon tumor; type: ADME, organism-based, BALB/c, Neoplasm; details: in vivo
[2] = Recovery of 7-deoxy epirubicinol aglycone following intravenous epirubicin at 1.5 mg.Kg-1 dose in man; type: ADME, organism-based, Plasma; details: human, in vivo
[3] = Recovery of 7-deoxy epirubicinol aglycone following intravenous epirubicin at 4 mg.Kg-1 dose in rabbit; type: ADME, organism-based, Oryctolagus cuniculus, New Zealand White, Plasma; details: in vivo
[4] = Recovery of 7-deoxy epirubicinol aglycone following intraperitoneal epirubicin at 4 mg.Kg-1 dose in mouse; type: ADME, organism-based, CD-1, Plasma; details: in vivo, ip
[5] = AUC values (0-48 h) of 7-deoxy epirubicinol aglycone in heart following single intravenous epirubicin at 10 mg.Kg-1 dose in female mouse bearing colon tumor; type: ADME, organism-based, BALB/c; details: in vivo
[6] = Detection of 7-deoxydoxorubicinol aglycone in tumor following single intravenous doxorubicin at 10 mg.Kg-1 dose in female mouse bearing colon tumor; type: ADME, organism-based, BALB/c, Neoplasm; design: dose 10 mg.Kg-1, dosed compound id 2.46809e+06, dosed compound name Doxorubicin, gender F, regimen Single, route intravenous, sampling time 48 h; details: in vivo
[7] = AUC values (0-48 h) of 7-deoxy doxorubicin-aglycone in plasma following single intravenous doxorubicin at 10 mg.Kg-1 dose in female mouse bearing colon tumor; type: ADME, organism-based, BALB/c; design: time < 48 hr, dose 10 mg.Kg-1, dosed compound id 2.46809e+06, dosed compound name Doxorubicin, gender F, regimen Single, route intravenous, sampling time 48 h; details: in vivo
[8] = Detection of 7-deoxydoxorubicinol aglycone in plasma following single intravenous doxorubicin at 10 mg.Kg-1 dose in female mouse bearing colon tumor; type: ADME, organism-based, BALB/c; design: dose 10 mg.Kg-1, dosed compound id 2.46809e+06, dosed compound name Doxorubicin, gender F, regimen Single, route intravenous, sampling time 48 h; details: in vivo
[9] = Detection of 7-deoxydoxorubicinol aglycone in heart following single intravenous doxorubicin at 10 mg.Kg-1 dose in female mouse bearing colon tumor; type: ADME, organism-based, BALB/c; design: dose 10 mg.Kg-1, dosed compound id 2.46809e+06, dosed compound name Doxorubicin, gender F, regimen Single, route intravenous, sampling time 48 h; details: in vivo
[10] = AUC values (0-48 h) of 7-deoxy doxorubicin-aglycone in heart following single intravenous doxorubicin at 10 mg.Kg-1 dose in female mouse bearing colon tumor; type: ADME, organism-based, BALB/c; design: time < 48 hr, dose 10 mg.Kg-1, dosed compound id 2.46809e+06, dosed compound name Doxorubicin, gender F, regimen Single, route intravenous, sampling time 48 h; details: in vivo
[11] = Detection of 7-deoxydoxorubicinol aglycone in heart following single intravenous epirubicin at 10 mg.Kg-1 dose in female mouse bearing colon tumor; type: ADME, organism-based, BALB/c; details: in vivo
[12] = AUC values (0-48 h) of 7-deoxy doxorubicin-aglycone in tumor following single intravenous doxorubicin at 10 mg.Kg-1 dose in female mouse bearing colon tumor; type: ADME, organism-based, BALB/c, Neoplasm; design: time < 48 hr, dose 10 mg.Kg-1, dosed compound id 2.46809e+06, dosed compound name Doxorubicin, gender F, regimen Single, route intravenous, sampling time 48 h; details: in vivo
[13] = Recovery of 7-deoxy epirubicinol aglycone following intravenous epirubicin at 4 mg.Kg-1 dose in rat; type: ADME, organism-based, SD, Plasma; details: in vivo
[14] = Recovery of 7-deoxy epirubicinol aglycone following intraperitoneal epirubicin at 4 mg.Kg-1 dose in hamster; type: ADME, organism-based, Cricetulus griseus, Plasma; details: chinese hamster, in vivo, ip
[15] = Detection of 7-deoxydoxorubicinol aglycone in plasma following single intravenous epirubicin at 10 mg.Kg-1 dose in female mouse bearing colon tumor; type: ADME, organism-based, BALB/c; details: in vivo
[16] = Detection of 7-deoxydoxorubicinol aglycone in tumor following single intravenous epirubicin at 10 mg.Kg-1 dose in female mouse bearing colon tumor; type: ADME, organism-based, BALB/c, Neoplasm; details: in vivo
[17] = AUC values (0-48 h) of 7-deoxy epirubicinol aglycone in plasma following single intravenous epirubicin at 10 mg.Kg-1 dose in female mouse bearing colon tumor; type: ADME, organism-based, BALB/c; details: in vivo
Homo sapiens [18] = species on record: Homo sapiens; assay: Binding of 14C-epirubicin at 500 ng.ml-1 concentration to plasma protein of man; type: cell-free; design: gender
Oryctolagus cuniculus [19] = species on record: Oryctolagus cuniculus; assay: Binding of 14C-epirubicin at 20 ng.ml-1 concentration to plasma protein of rabbit; type: cell-free; details: New Zealand White
Rattus norvegicus [20] = species on record: Rattus norvegicus; assay: Binding of 14C-epirubicin at 100 ng.ml-1 concentration to plasma protein of rat; type: cell-free; details: SD
Oryctolagus cuniculus [21] = species on record: Oryctolagus cuniculus; assay: Binding of 14C-epirubicin at 1000 ng.ml-1 concentration to plasma protein of rabbit; type: cell-free; details: New Zealand White
Homo sapiens [22] = species on record: Homo sapiens; assay: Binding of 14C-epirubicin at 1000 ng.ml-1 concentration to plasma protein of man; type: cell-free; design: gender
Homo sapiens [23] = species on record: Homo sapiens; assay: Binding of epirubicin to plasma protein of human; type: cell-free
Canis lupus familiaris [24] = species on record: Canis lupus familiaris; assay: Binding of 14C-epirubicin at 100 ng.ml-1 concentration to plasma protein of dog; type: cell-free; details: Beagle
Canis lupus familiaris [25] = species on record: Canis lupus familiaris; assay: Binding of 14C-epirubicin at 1000 ng.ml-1 concentration to plasma protein of dog; type: cell-free; details: Beagle
Mus musculus [26] = species on record: Mus musculus; assay: Binding of 14C-epirubicin at 100 ng.ml-1 concentration to plasma protein of mouse; type: cell-free; details: CD-1
Rattus norvegicus [27] = species on record: Rattus norvegicus; assay: Binding of 14C-epirubicin at 20 ng.ml-1 concentration to plasma protein of rat; type: cell-free; details: SD
Rattus norvegicus [28] = species on record: Rattus norvegicus; assay: Binding of 14C-epirubicin at 500 ng.ml-1 concentration to plasma protein of rat; type: cell-free; details: SD
Mus musculus [29] = species on record: Mus musculus; assay: Binding of 14C-epirubicin at 1000 ng.ml-1 concentration to plasma protein of mouse; type: cell-free; details: CD-1
Rattus norvegicus [30] = species on record: Rattus norvegicus; assay: Binding of 14C-epirubicin at 0.164 ug-ml-1 concentration to plasma protein of rat; type: organism-based; design: conc 0.164 ug.ml-1, dosed compound id 2.46808e+06, dosed compound name, sampling time 30 min; details: SD, at 0.164 µg/mL
Rattus norvegicus [31] = species on record: Rattus norvegicus; assay: Binding of 14C-epirubicin at 0.077 ug-ml-1 concentration to plasma protein of rat; type: organism-based; design: conc 0.077 ug.ml-1, dosed compound id 2.46808e+06, dosed compound name, sampling time 6 h; details: SD, at 0.077 µg/mL
Mus musculus [32] = species on record: Mus musculus; assay: Binding of 14C-epirubicin at 20 ng.ml-1 concentration to plasma protein of mouse; type: cell-free; details: CD-1
Mus musculus [33] = species on record: Mus musculus; assay: Binding of 14C-epirubicin at 500 ng.ml-1 concentration to plasma protein of mouse; type: cell-free; details: CD-1
Oryctolagus cuniculus [34] = species on record: Oryctolagus cuniculus; assay: Binding of 14C-epirubicin at 500 ng.ml-1 concentration to plasma protein of rabbit; type: cell-free; details: New Zealand White
Rattus norvegicus [35] = species on record: Rattus norvegicus; assay: Binding of 14C-epirubicin at 1.081 ug-ml-1 concentration to plasma protein of rat; type: cell-free; design: conc 1.081 ug.ml-1; details: SD, at 1.081 µg/mL
Rattus norvegicus [36] = species on record: Rattus norvegicus; assay: Binding of 14C-epirubicin at 0.223 ug-ml-1 concentration to plasma protein of rat; type: cell-free; design: conc 0.223 ug.ml-1; details: SD, at 0.223 µg/mL
Rattus norvegicus [37] = species on record: Rattus norvegicus; assay: Binding of 14C-epirubicin at 1000 ng.ml-1 concentration to plasma protein of rat; type: cell-free; details: SD
Homo sapiens [38] = species on record: Homo sapiens; assay: Binding of 14C-epirubicin at 100 ng.ml-1 concentration to plasma protein of man; type: cell-free; design: gender
Rattus norvegicus [39] = species on record: Rattus norvegicus; assay: Binding of 14C-epirubicin at 0.056 ug-ml-1 concentration to plasma protein of rat; type: cell-free; design: conc 0.056 ug.ml-1; details: SD, at 0.056 µg/mL
Oryctolagus cuniculus [40] = species on record: Oryctolagus cuniculus; assay: Binding of 14C-epirubicin at 100 ng.ml-1 concentration to plasma protein of rabbit; type: cell-free; details: New Zealand White
Canis lupus familiaris [41] = species on record: Canis lupus familiaris; assay: Binding of 14C-epirubicin at 500 ng.ml-1 concentration to plasma protein of dog; type: cell-free; details: Beagle
Rattus norvegicus [42] = species on record: Rattus norvegicus; assay: Binding of 14C-epirubicin at 0.048 ug-ml-1 concentration to plasma protein of rat; type: organism-based; design: conc 0.048 ug.ml-1, dosed compound id 2.46808e+06, dosed compound name, sampling time 24 h; details: SD, at 0.048 µg/mL
Homo sapiens [43] = species on record: Homo sapiens; assay: Binding of epirubicin at 20-1000 ng.ml-1 concentration to plasma protein of human; type: cell-free
Canis lupus familiaris [44] = species on record: Canis lupus familiaris; assay: Binding of 14C-epirubicin at 20 ng.ml-1 concentration to plasma protein of dog; type: cell-free; details: Beagle

AUC [1]: 99 nmol·min/g
Compound recovery [2]: 25 10^-9M
Compound recovery [3]: 4.2 10^-9M
Compound recovery [4]: 20 10^-9M
AUC [5]: 66 nmol·min/g
Compound recovery [6]: OUTCOME = Observed
AUC [7]: 83.3 nmol·min/mL
Compound recovery [8]: OUTCOME = Observed
Compound recovery [9]: OUTCOME = Observed
AUC [10]: 218 nmol·min/g
Compound recovery [11]: OUTCOME = Observed
AUC [12]: 204 nmol·min/g
Compound recovery [13]: 4.2 10^-9M
Compound recovery [14]: 21 10^-9M
Compound recovery [15]: OUTCOME = Observed
Compound recovery [16]: OUTCOME = Observed
AUC [17]: 53.9 nmol·min/mL
SMILES: COc1cccc2c1C(=O)c1c(O)c3c(c(O)c1C2=O)C[C@@](O)(C(O)CO)CC3 (some centres undefined)

SMILES: COc1cccc2c1C(=O)c1c(O)c3c(c(O)c1C2=O)C[C@@](O)(C(=O)CO)C[C@@H]3O[C@H]1C[C@H](N)[C@@H](O)[C@H](C)O1
PPB (Homo sapiens [18]): 77.3%
PPB (Oryctolagus cuniculus [19]): 78.5%
PPB (Rattus norvegicus [20]): 82.8%
PPB (Oryctolagus cuniculus [21]): 77.1%
PPB (Homo sapiens [22]): 76.8%
PPB (Homo sapiens [23]): 75%
PPB (Canis lupus familiaris [24]): 81.2%
PPB (Canis lupus familiaris [25]): 80.9%
PPB (Mus musculus [26]): 79.9%
PPB (Rattus norvegicus [27]): 79.1%
PPB (Rattus norvegicus [28]): 81.3%
PPB (Mus musculus [29]): 80.3%
PPB (Rattus norvegicus [30]): 80.7%
PPB (Rattus norvegicus [31]): 85.6%
PPB (Mus musculus [32]): 76.5%
PPB (Mus musculus [33]): 80%
PPB (Oryctolagus cuniculus [34]): 78.4%
PPB (Rattus norvegicus [35]): 82.2%
PPB (Rattus norvegicus [36]): 81%
PPB (Rattus norvegicus [37]): 78.7%
PPB (Homo sapiens [38]): 78.1%
PPB (Rattus norvegicus [39]): 81.7%
PPB (Oryctolagus cuniculus [40]): 70.2%
PPB (Canis lupus familiaris [41]): 80.7%
PPB (Rattus norvegicus [42]): 88.2%
PPB (Homo sapiens [43]): 77%
PPB (Canis lupus familiaris [44]): 80.3%
